Drawing on US20250059171A1 (Hoffmann-La Roche Inc., priority 2021, published 2025), this text covers IC50 for 9 compounds.

Where two headings read alike, the source gives them in different places.

One assay deals with SARS-CoV-2 3CLpro (Severe acute respiratory syndrome coronavirus 2, UniProt P0DTD1). The assay is described as follows: biochemical.
A further assay concerns the target HCoV-229E 3CLpro (Human coronavirus 229E, UniProt P0C6X1). Kind of assay: HCoV-229E 3CLpro inhibition assay (FRET). Type of assay: biochemical.
The target of another assay is MERS-CoV 3CLpro (Middle East respiratory syndrome-related coronavirus, UniProt K9N7C7). Kind of assay: biochemical.
MERS-CoV 3CLpro, sequence (K9N7C7 3248-3553): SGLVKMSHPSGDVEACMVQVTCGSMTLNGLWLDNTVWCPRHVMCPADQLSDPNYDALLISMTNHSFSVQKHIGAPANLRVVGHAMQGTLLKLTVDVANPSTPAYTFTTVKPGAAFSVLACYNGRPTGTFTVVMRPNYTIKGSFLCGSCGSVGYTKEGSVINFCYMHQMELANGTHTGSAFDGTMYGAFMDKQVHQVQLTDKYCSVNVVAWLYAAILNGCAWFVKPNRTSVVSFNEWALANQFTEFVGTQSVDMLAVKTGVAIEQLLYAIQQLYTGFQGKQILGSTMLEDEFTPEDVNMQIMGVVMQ
Another assay concerns the target SARS-CoV 3CLpro (Severe acute respiratory syndrome coronavirus, UniProt P0C6X7). The assay is described as follows: biochemical.

HCoV-229E 3CLpro, sequence (P0C6X1 2966-3267): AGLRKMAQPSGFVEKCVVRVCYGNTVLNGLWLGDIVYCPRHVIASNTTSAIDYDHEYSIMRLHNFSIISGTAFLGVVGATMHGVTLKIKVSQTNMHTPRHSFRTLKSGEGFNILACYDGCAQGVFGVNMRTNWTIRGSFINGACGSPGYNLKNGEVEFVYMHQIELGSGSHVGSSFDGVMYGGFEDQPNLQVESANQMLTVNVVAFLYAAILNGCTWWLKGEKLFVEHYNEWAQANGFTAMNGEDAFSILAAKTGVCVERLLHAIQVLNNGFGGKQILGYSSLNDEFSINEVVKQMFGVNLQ

As a reminder, the IC50 is the midpoint of a concentration-inhibition curve. In the case of `CC[C@H](C)[C@H](NC(=O)[C@@H](F)Cl)C(=O)N1C[C@H]2[C@@H]([C@H]1C(=O)NN(C[C@@H]1CCCNC1=O)C(=O)[C@@H](F)Cl)C2(C)C` [Example 189, (2S)-2-chloro-N-[(1S,2S)-1-[(1R,2S,5S)-2-[[[(2S)-2-chloro-2-fluoro-acetyl]-[[(3S)-2-oxo-3-piperidyl]methyl]amino]carbamoyl]-6,6-dimethyl-3-azabicyclo[3.1.0]hexane-3-carbonyl]-2-methyl-butyl]-2-fluoro-acetamide], the half-inhibitory concentration (IC50) against SARS-CoV-2 3CLpro was 8 nM; at HCoV-229E 3CLpro it was 24 nM; at MERS-CoV 3CLpro, 50 nM; on SARS-CoV 3CLpro it was 10 nM.

Consider `CC[C@H](C)[C@H](NC(=O)[C@H](F)Cl)C(=O)N1C[C@@H]2CCC[C@@H]2[C@H]1C(=O)NN(C[C@@H]1CCCNC1=O)C(=O)[C@H](F)Cl` [Example 190, (2R)—N-[(1S,2S)-1-[(3S,3aS,6aR)-3-[[[(2R)-2-chloro-2-fluoro-acetyl]-[[(3S)-2-oxo-3-piperidyl]methyl]amino]carbamoyl]-3,3a,4,5,6,6a-hexahydro-1H-cyclopenta[c]pyrrole-2-carbonyl]-2-methyl-butyl]-2-chloro-2-fluoro-acetamide], for which the half-maximal inhibitory concentration (IC50) turned out to be 8 nM at SARS-CoV-2 3CLpro, 29 nM against HCoV-229E 3CLpro, 59 nM against MERS-CoV 3CLpro and 11 nM at SARS-CoV 3CLpro.

On to `CC[C@H](C)[C@H](NC(=O)[C@@H](F)Cl)C(=O)N1C[C@@H]2CCC[C@@H]2[C@H]1C(=O)NN(C[C@@H]1CCCNC1=O)C(=O)[C@@H](F)Cl` [Example 191, (2S)—N-[(1S,2S)-1-[(3S,3aS,6aR)-3-[[[(2S)-2-chloro-2-fluoro-acetyl]-[[(3S)-2-oxo-3-piperidyl]methyl]amino]carbamoyl]-3,3a,4,5,6,6a-hexahydro-1H-cyclopenta[c]pyrrole-2-carbonyl]-2-methyl-butyl]-2-chloro-2-fluoro-acetamide], for which the IC50 on SARS-CoV-2 3CLpro (read-out: IC50 in SARS-CoV-2 3CLpro assay) came to 7 nM; against HCoV-229E 3CLpro it was 27 nM; against MERS-CoV 3CLpro, 49 nM; against SARS-CoV 3CLpro it was 11 nM.

On to `CC[C@H](C)[C@H](NC(=O)[C@H](F)Cl)C(=O)N1C[C@@H]2CCC[C@@H]2[C@H]1C(=O)NN(C[C@H]1CCCNC1=O)C(=O)[C@H](F)Cl` [Example 192, (2R)—N-[(1S,2S)-1-[(3S,3aS,6aR)-3-[[[(2R)-2-chloro-2-fluoro-acetyl]-[[(3R)-2-oxo-3-piperidyl]methyl]amino]carbamoyl]-3,3a,4,5,6,6a-hexahydro-1H-cyclopenta[c]pyrrole-2-carbonyl]-2-methyl-butyl]-2-chloro-2-fluoro-acetamide], for which the IC50 on SARS-CoV-2 3CLpro worked out at 10 nM; against HCoV-229E 3CLpro, 52 nM; at MERS-CoV 3CLpro, 148 nM; against SARS-CoV 3CLpro, 17 nM.

For the compound `CC[C@H](C)[C@H](NC(=O)[C@@H](F)Cl)C(=O)N1C[C@@H]2CCC[C@@H]2[C@H]1C(=O)NN(C[C@H]1CCCNC1=O)C(=O)[C@@H](F)Cl` [Example 193, (2S)—N-[(1S,2S)-1-[(3S,3aS,6aR)-3-[[[(2S)-2-chloro-2-fluoro-acetyl]-[[(3R)-2-oxo-3-piperidyl]methyl]amino]carbamoyl]-3,3a,4,5,6,6a-hexahydro-1H-cyclopenta[c]pyrrole-2-carbonyl]-2-methyl-butyl]-2-chloro-2-fluoro-acetamide], the half-maximal inhibitory concentration (IC50) was determined as 17 nM at SARS-CoV-2 3CLpro, 49 nM against HCoV-229E 3CLpro, 110 nM at MERS-CoV 3CLpro and 33 nM against SARS-CoV 3CLpro.

With `CC[C@H](C)[C@H](NC(=O)[C@H](F)Cl)C(=O)N1C[C@H]2[C@@H]([C@H]1C(=O)NN(C[C@H]1CCCNC1=O)C(=O)[C@H](F)Cl)C2(C)C` [Example 194, (2R)-2-chloro-N-[(1S,2S)-1-[(1R,2S,5S)-2-[[[(2R)-2-chloro-2-fluoro-acetyl]-[[(3R)-2-oxo-3-piperidyl]methyl]amino]carbamoyl]-6,6-dimethyl-3-azabicyclo[3.1.0]hexane-3-carbonyl]-2-methyl-butyl]-2-fluoro-acetamide], the IC50 was determined as 15 nM at SARS-CoV-2 3CLpro, 29 nM at HCoV-229E 3CLpro, 112 nM at MERS-CoV 3CLpro and 25 nM at SARS-CoV 3CLpro.

Regarding `CC[C@H](C)[C@H](NC(=O)[C@@H](F)Cl)C(=O)N1C[C@H]2[C@@H]([C@H]1C(=O)NN(C[C@H]1CCCNC1=O)C(=O)[C@@H](F)Cl)C2(C)C` [Example 195, (2S)-2-chloro-N-[(1S,2S)-1-[(1R,2S,5S)-2-[[[(2S)-2-chloro-2-fluoro-acetyl]-[[(3R)-2-oxo-3-piperidyl]methyl]amino]carbamoyl]-6,6-dimethyl-3-azabicyclo[3.1.0]hexane-3-carbonyl]-2-methyl-butyl]-2-fluoro-acetamide], the IC50 at SARS-CoV-2 3CLpro is 28 nM; at HCoV-229E 3CLpro, 29 nM; against MERS-CoV 3CLpro it was 112 nM; on SARS-CoV 3CLpro, 51 nM.

As for `CC(C)(C)[C@H](NC(=O)[C@@H]1CC1(F)F)C(=O)N1C[C@@H]2CCC[C@@H]2[C@H]1C(=O)NN(C[C@@H]1CCCNC1=O)C(=O)[C@H](F)Cl` [Example 196, (1S)—N-[(1S)-1-[(3S,3aS,6aR)-3-[[[(2R)-2-chloro-2-fluoro-acetyl]-[[(3S)-2-oxo-3-piperidyl]methyl]amino]carbamoyl]-3,3a,4,5,6,6a-hexahydro-1H-cyclopenta[c]pyrrole-2-carbonyl]-2,2-dimethyl-propyl]-2,2-difluoro-cyclopropanecarboxamide], the IC50 against SARS-CoV-2 3CLpro stood at 11 nM; on HCoV-229E 3CLpro it was 38 nM; at MERS-CoV 3CLpro it was 89 nM; at SARS-CoV 3CLpro, 14 nM.

`CC(C)(C)[C@H](NC(=O)[C@@H]1CC1(F)F)C(=O)N1C[C@@H]2CCC[C@@H]2[C@H]1C(=O)NN(C[C@@H]1CCCNC1=O)C(=O)[C@@H](F)Cl` [Example 197, (1S)—N-[(1S)-1-[(3S,3aS,6aR)-3-[[[(2S)-2-chloro-2-fluoro-acetyl]-[[(3S)-2-oxo-3-piperidyl]methyl]amino]carbamoyl]-3,3a,4,5,6,6a-hexahydro-1H-cyclopenta[c]pyrrole-2-carbonyl]-2,2-dimethyl-propyl]-2,2-difluoro-cyclopropanecarboxamide]: the IC50 was determined as 11 nM against SARS-CoV-2 3CLpro, 65 nM at HCoV-229E 3CLpro, 94 nM at MERS-CoV 3CLpro and 13 nM on SARS-CoV 3CLpro.
